In US20220339178A1, “COMPOSITIONS AND METHODS FOR COGNITIVE PROTECTION OF POLLINATORS AGAINST PESTICIDES” (priority 2019, published 2022):

System: Honey bee foragers (Apis mellifera scutellata)
Assay: Classical conditioning of PER in honey bees: rutin, kaempferol, p-coumaric acid vs fipronil
Assay type: in vivo
Protocol: Honey bee foragers (Apis mellifera scutellata) were captured from established hives at the Apiary of the Universidad del Rosario (Bogota, Colombia) between 08:00 h and 10:00 h. Bees were ice-anesthetized and harnessed in plastic tubes and maintained under laboratory conditions for the duration of the experiment (five days). Food was provided twice a day in a volumen of 10 μL and varied in composition according to experimental treatments.
Bees were randomly allocated to one of the following treatments administered twice a day for three consecutive days (all concentrations are final):
Control: 1M sucrose water (10 μL)
Rut: 1 μM rutin (Sigma-Aldrich: R5143)-1M sugar water (10 μL)
Kaemp:131 μM kaempferol (Sigma-Aldrich:K0133)+1M sugar water (10 μL)
p-Cou A: 200 μM p-coumaric acid (Sigma-Aldrich:C9008) diluted in 1M sugar water (10 μL)
Mix: 1 μM rutin, 131 μM kaempferol and 200 μM p-Coumaric acid): Bees fed with composition diluted in 1M sugar water (10 μL) fed twice a day for three days
On the fourth day, bees were randomly assigned to one of two treatments three hours before training:
Fipronil: 10 μL of 228 nM Fipronil (Astuto Invesa) in 1M sucrose water
Sucrose solution: 10 μL 1M sucrose water
Thus, bees belong to one of ten treatments: Control, Kaemp, Rut, p-Cou A, Mix, Fipro, Kaemp+Fipro, Rut+Fipro, p-Cou A+Fipro, Mix+Fipro.
Bees were trained using classical conditioning of the proboscis extension response (PER). Briefly, bees received a soft current of clean air for 15 seconds to allow bees to accommodate. Then a soft current of 1-hexanol (Sigma-Aldrich: 471402) was injected for 10 seconds. Six seconds after injection of 1-hexanol, one of the antennae was stimulated with sugar water (1.5M), which leads to the reflexive extension of the proboscis, and the bee was allowed to drink for 4 seconds. Thus, the reward and the stimulus overlapped for four seconds. This sequence, recognized as a training trial, was repeated eleven times. Time was determined using a metronome (2 Hz). Memory retention was tested 24 hours after the eleven training trials. […] 12 bees were trained each session. Training was conducted by an experimenter blind to treatment.
Learning for each individual was quantified as the number of conditioned PER responses across the trials. Thus, for each bee a learning score between zero and ten (0-10) was recorded.
Multiple comparisons were then run comparing learning score relative to Control bees using a non-parametric one or two-tailed Steel Method depending upon predictions. These comparisons informed us about the predicted impairment produced by the insecticides, the predicted innocuous effect of the flavonoid and the potential level of protection. Error due to multiple comparisons was controlled using the False Discovery Rate method (FDR-two stage sharpened method). In all cases corrected p-values (q-values) are presented.
Memory retention was quantified as a nominal variable (yes/no). Data were compared across treatments using a Chi-square test, followed by multiple comparisons of all treatments vs. Control. Error due to multiple comparisons was controlled using the FDR as indicated above. In all cases corrected p-values (q values) are presented.
Latency was quantified as a continuous variable between 0.5 s and 10 s. Data were compared across treatments using an ANOVA following a Log transformation to normalize the distribution (Shapiro-Wilk W Test after log transformation: p>0.05 for all treatments for the null hypothesis that data is from a normal distribution), followed by multiple comparisons between all treatments and the Control group (Dunnett's method). Error due to multiple comparisons was controlled using the FDR method as indicated above. In all cases corrected p-values (q-values) are presented.

With C[C@@H]1O[C@@H](OC[C@H]2O[C@@H](Oc3c(-c4ccc(O)c(O)c4)oc4cc(O)cc(O)c4c3=O)[C@H](O)[C@@H](O)[C@@H]2O)[C@H](O)[C@H](O)[C@H]1O [Rutin] the “latency of response relative to Control bees” value (Dunnett's method) was “not significantly different from Control” and the “learning score relative to Control bees” value (honey bees, score 0-10, 1 μM rutin, 131 μM kaempferol, 200 μM p-coumaric acid or Mix twice a day for three days, 228 nM fipronil 10 μL three hours before training) was “not significantly different from Control bees”.
